From patent US20240383921A1, “AMIDE AND UREA-CONTAINING TRICYCLIC KRAS INHIBITORS” (Erasca, Inc., priority 2021, published 2024)
pIC50: −log10 of the molar value.

How the values were obtained:
[1] = tested on: Ras Initiative (RI) KRAS G12C cells; assay: phospho-ERK HTRF assay in RI KRAS G12C cells; type: cell-based; settings: 11-point dose response starting at 2,500 nM, 4 hours or 16 hours treatment, read-out: pERK (RI)
Procedure: KRAS G12C mutant lines, NCI H358 (ATCC, CRL-5807), and Ras Initiative (RI) KRAS G12C were cultured according to published protocols and maintained at 37° C. in 5% CO2. The phospho-ERK HTRF assay was executed following provider's protocol (CisBio #64AERPEH). NCI-H358 or RI KRAS G12C cells were plated at a density of 50,000 cells per well in a 96-well plate (Corning #3903) in respective medias (for NCI-H358, RPMI+10% FBS+1% Pen/Strep, and for RI KRAS G12C, DMEM+10% FBS+1% Pen/Strep+4 μg/mL Blasticidin) and maintained at 37° C. in 5% CO2. Cells were allowed to adhere overnight and treated the following day with a Tecan D300e Digital Dispenser (Tecan Group Ltd., Switzerland) using an 11-point dose response starting at 2,500 nM of exemplified compounds followed by sequential 1:3 dilutions for either 4 hours or 16 hours. Following compound treatment, the cells were washed once with ice-cold PBS. Cells were lysed by adding 50 μL of lysis buffer (1×) supplemented with 1× Pierce Halt Protease and Phosphatase inhibitor and incubated for 30 minutes at 4° C. with shaking. After lysis, 16 μL of cell lysate from the 96-well cell-culture plate was transferred to a 384-well plate (Perkin Elmer #6007290). The premixed antibody solution was prepared by mixing (vol/vol) advanced phospho-ERK1/2 d2 antibody and advanced phospho-ERK1/2 Eu Cryptate antibody. The premixed antibody solution (4 μL) was added to the detection plate containing cell lysate. The detection plate was incubated overnight at 4° C., the HTRF signal was read the next day by using either a Spectramax M5 or Spectramax i3 microplate reader (Molecular Devices, San Jose, CA, USA), and data was processed according to manufacturer's protocol.
Examples were evaluated according to the above p-ERK assay

KRAS 4B G12C protein = target: T1, KRAS 4B G12C protein (Homo sapiens, UniProt P01116, G12C); assay: KRAS G12C covalent adduct formation (CAF) assay, LC-MS; type: binding; settings: 10 μM compound, 5 μM protein, 22° C.
T1 construct: made in house; host or cells: E. coli BL21
Procedure: This Example provides a protocol for assessing covalent adduct formation (CAF) between the compounds of Formula (I) and KRAS.
In vitro covalent adduct formation assay: Covalent adduct formation (CAF) reactions between Cys12 of the KRAS 4B G12C protein and the compounds disclosed herein were measured in vitro using liquid chromatography-mass spectrometry (LC-MS).
Recombinant Human KRAS 4B protein containing the G12C mutation was used in compound screening experiments. This protein contained 188 amino acids in total, including an N-terminal 6-Histidine tag, followed by a Tobacco Etch Virus (TEV) tag, followed by residues 1-169 of the native KRAS 4B sequence. The exact mass of the protein is 21,310 Da as determined by mass spectrometry. […]
The recombinant protein is expressed in E. coli BL21 cells and purified using affinity chromatography via a Ni-NTA column. […] The intact mass of the protein samples was measured by LC-MS using a QExactive+ mass spectrometer (Thermo Scientific). An amount of 500 ng total protein was injected onto a C8 reverse phase column, eluted with a seven-minute gradient of 30%-90% acetonitrile/0.1% formic acid, and analyzed for intact mass by the mass spectrometer. Adducts identified were confirmed to be within 1 Dalton of the expected mass, and the relative ratios of free:adduct protein were used to quantify the percentage of protein bound by the compound. […]

C=CC(=O)N1CCN(c2nc(=O)n3c4c(c(-c5ccc(F)c6[nH]c(=O)[nH]c56)c(C(F)(F)F)cc24)SCC2(CCC2)C3)CC1 [Example 5, 8′-(4-acryloylpiperazin-1-yl)-11′-(7-fluoro-2-oxo-2,3-dihydro-1H-benzo[d]imidazol-4-yl)-10′-(trifluoromethyl)-2′H,4′H,6′H-spiro[cyclobutane-1,3′-[1,4]thiazepino[2,3,4-ij]quinazolin]-6′-one]
pIC50 [1]: < 5.60

C=CC(=O)N1CCN(c2nc(=O)n3c4c(c(-c5ccc(F)c6sc(=O)[nH]c56)c(C(F)(F)F)cc24)SC[C@@H]3COC)CC1 [Example 7, (3S,10S)-7-(4-acryloylpiperazin-1-yl)-10-(7-fluoro-2-oxo-2,3-dihydrobenzo[d]thiazol-4-yl)-3-(methoxymethyl)-9-(trifluoromethyl)-2,3-dihydro-5H-[1,4]thiazino[2,3,4-ij]quinazolin-5-one]
pIC50 [1]: 7.74

C=CC(=O)N1CCN(c2nc(=O)n3c4c(c(-c5ccc(F)c6[nH]c(=O)[nH]c56)c(C(F)(F)F)cc24)SC[C@@H]3COC)CC1 [Example 3, (3S,10S)-7-(4-acryloylpiperazin-1-yl)-10-(7-fluoro-2-oxo-2,3-dihydro-1H-benzo[d]imidazol-4-yl)-3-(methoxymethyl)-9-(trifluoromethyl)-2,3-dihydro-5H-[1,4]thiazino[2,3,4-ij]quinazolin-5-one]
pIC50 [1]: < 5.60

C=CC(=O)N1[C@H](C)CN(c2nc(=O)n3c4c(c(-c5ccc(F)c6sc(=O)n(C)c56)c(C(F)(F)F)cc24)SC[C@@H]3COC)C[C@@H]1C [Example 10, (3S)-7-((3S,5R)-4-acryloyl-3,5-dimethylpiperazin-1-yl)-10-(7-fluoro-3-methyl-2-oxo-2,3-dihydrobenzo[d]thiazol-4-yl)-3-(methoxymethyl)-9-(trifluoromethyl)-2,3-dihydro-5H-[1,4]thiazino[2,3,4-ij]quinazolin-5-one]
pIC50 [1]: 7.34

C=CC(=O)N1[C@H](C)CN(c2nc(=O)n3c4c(c(-c5ccc(F)c6[nH]c(=O)[nH]c56)c(C(F)(F)F)cc24)SC[C@@H]3COC)C[C@@H]1C [Example 2, (3S,10S)-7-((3S,5R)-4-acryloyl-3,5-dimethylpiperazin-1-yl)-10-(7-fluoro-2-oxo-2,3-dihydro-1H-benzo[d]imidazol-4-yl)-3-(methoxymethyl)-9-(trifluoromethyl)-2,3-dihydro-5H-[1,4]thiazino[2,3,4-ij]quinazolin-5-one]
pIC50 [1]: < 5.60

C=CC(=O)N1[C@H](C)CN(c2nc(=O)n3c4c(c(-c5ccc(F)c6sc(=O)[nH]c56)c(C(F)(F)F)cc24)SC[C@@H]3COC)C[C@@H]1C [Example 6, (3S,10S)-7-((3S,5R)-4-acryloyl-3,5-dimethylpiperazin-1-yl)-10-(7-fluoro-2-oxo-2,3-dihydrobenzo[d]thiazol-4-yl)-3-(methoxymethyl)-9-(trifluoromethyl)-2,3-dihydro-5H-[1,4]thiazino[2,3,4-ij]quinazolin-5-one]
pIC50 [1]: 7.17

C=CC(=O)N1[C@H](C)CN(c2nc(=O)n3c4c(c(-c5ccc(F)c6[nH]c(=O)[nH]c56)c(C(F)(F)F)cc24)SCC2(CCC2)C3)C[C@@H]1C [Example 4, 8′-((3S,5R)-4-acryloyl-3,5-dimethylpiperazin-1-yl)-11′-(7-fluoro-2-oxo-2,3-dihydro-1H-benzo[d]imidazol-4-yl)-10′-(trifluoromethyl)-2′H, 4′H,6′H-spiro[cyclobutane-1,3′-[1,4]thiazepino[2,3,4-ij]quinazolin]-6′-one]
pIC50 [1]: < 5.60

C=CC(=O)N1[C@H](C)CN(c2nc(=O)n3c4c(c(-c5ccc(F)c6sc(=O)[nH]c56)c(C(F)(F)F)cc24)SCC2(CCC2)C3)C[C@@H]1C [Example 8, 8′-((3S,5R)-4-acryloyl-3,5-dimethylpiperazin-1-yl)-11′-(7-fluoro-2-oxo-2,3-dihydrobenzo[d]thiazol-4-yl)-10′-(trifluoromethyl)-2′H,4′H,6′H-spiro[cyclobutane-1,3′-[1,4]thiazepino[2,3,4-ij]quinazolin]-6′-one]
pIC50 [1]: 6.77

C=CC(=O)N1[C@H](C)CN(c2nc(=O)n3c4c(c(-c5ccc(F)c6[nH]c(=O)[nH]c56)c(C(F)(F)F)cc24)SC[C@@H](OC)C3)C[C@@H]1C [Example 1, (3S)-8-((3S,5R)-4-acryloyl-3,5-dimethylpiperazin-1-yl)-11-(7-fluoro-2-oxo-2,3-dihydro-1H-benzo[d]imidazol-4-yl)-3-methoxy-10-(trifluoromethyl)-3,4-dihydro-2H,6H-[1,4]thiazepino[2,3,4-ij]quinazolin-6-one]
% CAF @ 60 min (KRAS 4B G12C protein): 75% | pIC50 [1]: < 5.60

C=CC(=O)N1CCN(c2nc(=O)n3c4c(c(-c5ccc(F)c6sc(=O)[nH]c56)c(C(F)(F)F)cc24)SCC2(CCC2)C3)CC1 [Example 9, 8′-(4-acryloylpiperazin-1-yl)-11′-(7-fluoro-2-oxo-2,3-dihydrobenzo[d]thiazol-4-yl)-10′-(trifluoromethyl)-2′H,4′H,6′H-spiro[cyclobutane-1,3′-[1,4]thiazepino[2,3,4-ij]quinazolin]-6′-one]
pIC50 [1]: 6.65
